Common to all, as to details: stereoisomer not certain
Data set [1] can be described thus: RP, Waters CORTECS T3, 100 × 2.1 mm, 2.7 µm, 0.2 mL/min, estimated dead time 1.1 min; A: water + 0.1% formic acid, pH 3; B: methanol + 0.1% formic acid, pH 3; gradient (min/%B) 0/0 1/0 6/5 30/100 35/100 35.1/0 40/0.
Data set [2] is described as follows: RP, Waters CORTECS T3, 100 × 2.1 mm, 2.7 µm, 0.3 mL/min, estimated dead time 0.73 min; A: water + 0.1% formic acid, pH 3; B: methanol + 0.1% formic acid, pH 3; gradient (min/%B) 0/0 1/0 6/5 30/100 35/100 35.1/0 40/0.
Data set [3] in a line: RP, Waters CORTECS T3, 100 × 2.1 mm, 2.7 µm, 0.2 mL/min, estimated dead time 1.1 min; A: water + 0.1% formic acid, pH 3; B: methanol + 0.1% formic acid, pH 3; gradient (min/%B) 0/5 5/5 25/95 25.1/100 35/100 35.1/5 45/5.
Data set [4] in a line: RP, Waters CORTECS T3, 100 × 2.1 mm, 2.7 µm, 0.15 mL/min, estimated dead time 1.5 min; A: water + 0.1% formic acid, pH 3; B: methanol + 0.1% formic acid, pH 3; gradient (min/%B) 0/5 5/5 25/95 25.1/100 35/100 35.1/5 45/5.
Data set [5] in a line: RP, Waters ACQUITY UPLC BEH C18, 100 × 2.1 mm, 1.7 µm, 0.2 mL/min, estimated dead time 1.1 min; A: water + 0.1% formic acid, pH 3; B: methanol + 0.1% formic acid, pH 3; gradient (min/%B) 0/5 5/5 25/100 30/100 30.1/5 35/5.
Data set [6] can be described thus: RP, Waters CORTECS T3, 100 × 2.1 mm, 2.7 µm, 0.25 mL/min, estimated dead time 0.88 min; A: water + 0.1% formic acid, pH 3; B: methanol + 0.1% formic acid, pH 3; gradient (min/%B) 0/5 5/5 25/95 25.1/100 35/100 35.1/5 45/5.
Data set [7] is described as follows: RP, Waters ACQUITY UPLC BEH C18, 100 × 2.1 mm, 1.7 µm, 0.1 mL/min, estimated dead time 2.2 min; A: water + 0.1% formic acid, pH 3; B: methanol + 0.1% formic acid, pH 3; gradient (min/%B) 0/5 5/5 25/100 30/100 30.1/5 35/5.
Data set [8] is described as follows: RP, Waters ACQUITY UPLC BEH C18, 100 × 2.1 mm, 1.7 µm, 0.1 mL/min, estimated dead time 2.2 min; A: water + 0.1% formic acid, pH 3; B: methanol + 0.1% formic acid, pH 3; gradient (min/%B) 0/5 5/5 25/95 25.1/100 35/100 35.1/5 45/5.
Data set [9] is described as follows: RP, Waters ACQUITY UPLC BEH C18, 100 × 2.1 mm, 1.7 µm, 0.2 mL/min, estimated dead time 1.1 min; A: water + 0.025% formic acid + 20 mM ammonium acetate + 0.055% ammonium hydroxide, pH 7; B: methanol; gradient (min/%B) 0/5 5/5 25/100 30/100 30.1/5 35/5.
The nature of data set [10]: HILIC, Merck SeQuant ZIC-HILIC, 150 × 2.1 mm, 5 µm, 0.75 mL/min, estimated dead time 0.44 min; A: water + 10 mM ammonium formate, pH 6; B: 5% water + 95% acetonitrile + 10 mM ammonium formate, pH 6; gradient (min/%B) 0/95 5/95 20/57 25/57 30/95 40/95.
Data set [11] is described as follows: HILIC, Merck SeQuant ZIC-HILIC, 150 × 2.1 mm, 5 µm, 0.75 mL/min, estimated dead time 0.44 min; A: water + 0.1% acetic acid + 10 mM ammonium acetate, pH 4; B: 5% water + 95% acetonitrile + 0.1% acetic acid + 10 mM ammonium acetate, pH 4; gradient (min/%B) 0/95 5/95 20/57 25/57 30/95 40/95.
Data set [12] is described as follows: HILIC, Waters XBridge BEH Amide, 100 × 2.1 mm, 2.5 µm, 0.5 mL/min, estimated dead time 0.44 min; A: water + 0.1% acetic acid + 10 mM ammonium acetate, pH 4; B: 5% water + 95% acetonitrile + 0.1% acetic acid + 10 mM ammonium acetate, pH 4; gradient (min/%B) 0/95 5/95 20/57 25/57 30/95 40/95.
A short description of data set [13]: RP, Waters CORTECS T3, 100 × 2.1 mm, 2.7 µm, 0.3 mL/min, estimated dead time 0.73 min; A: water + 0.1% formic acid, pH 3; B: methanol + 0.1% formic acid, pH 3; gradient (min/%B) 0/0 5/0 25/100 30/100 30.1/0 35/0.
Data set [14] is described as follows: RP, Thermo Scientific Hypercarb, 150 × 2.1 mm, 5 µm, 0.1 mL/min, estimated dead time 3.3 min; A: water + 0.1% formic acid, pH 3; B: methanol + 0.1% formic acid, pH 3; gradient (min/%B) 0/5 5/5 20/100 35/100 35.1/5 45/5.
Data set [15] can be described thus: RP, Waters CORTECS T3, 100 × 2.1 mm, 2.7 µm, 0.3 mL/min, estimated dead time 0.73 min; A: water + 0.1% formic acid, pH 3; B: methanol + 0.1% formic acid, pH 3; gradient (min/%B) 0/5 5/5 25/100 30/100 30.1/5 35/5.
A short description of data set [16]: RP, Waters CORTECS T3, 100 × 2.1 mm, 2.7 µm, 0.3 mL/min, estimated dead time 0.73 min; A: water + 0.1% formic acid, pH 3; B: methanol + 0.1% formic acid, pH 3; gradient (min/%B) 0/0 5/0 25/100 30/100 30.1/0 35/0. The source holds these as a separate data set.
A short description of data set [17]: RP, Waters CORTECS T3, 100 × 2.1 mm, 2.7 µm, 0.2 mL/min, estimated dead time 1.1 min; A: water + 0.1% formic acid, pH 3; B: methanol + 0.1% formic acid, pH 3; gradient (min/%B) 0/0 1/0 6/5 30/100 35/100 35.1/0 40/0. This is another data set of the same source.
Data set [18] is described as follows: RP, Waters CORTECS T3, 100 × 2.1 mm, 2.7 µm, 0.1 mL/min, estimated dead time 2.2 min; A: water + 0.1% formic acid, pH 3; B: methanol + 0.1% formic acid, pH 3; gradient (min/%B) 0/0 1/0 6/5 30/100 35/100 35.1/0 40/0.
The nature of data set [19]: RP, Waters CORTECS T3, 100 × 2.1 mm, 2.7 µm, 0.15 mL/min, estimated dead time 1.5 min; A: water + 0.1% formic acid, pH 3; B: methanol + 0.1% formic acid, pH 3; gradient (min/%B) 0/0 1/0 6/5 30/100 35/100 35.1/0 40/0.
The nature of data set [20]: RP, Waters CORTECS T3, 100 × 2.1 mm, 2.7 µm, 0.3 mL/min, estimated dead time 0.73 min; A: water + 0.1% formic acid, pH 3; B: methanol + 0.1% formic acid, pH 3; gradient (min/%B) 0/0 1/0 6/5 30/100 35/100 35.1/0 40/0. This is another data set of the same source.
Data set [21] in a line: RP, Waters CORTECS T3, 100 × 2.1 mm, 2.7 µm, 0.25 mL/min, estimated dead time 0.88 min; A: water + 0.1% formic acid, pH 3; B: methanol + 0.1% formic acid, pH 3; gradient (min/%B) 0/0 1/0 6/5 30/100 35/100 35.1/0 40/0.
Data set [22] can be described thus: RP, Waters CORTECS T3, 100 × 2.1 mm, 2.7 µm, 0.3 mL/min, estimated dead time 0.73 min; A: water + 0.1% formic acid, pH 3; B: methanol + 0.1% formic acid, pH 3; gradient (min/%B) 0/5 5/5 25/95 25.1/100 35/100 35.1/5 45/5.
A short description of data set [23]: RP, Waters CORTECS T3, 100 × 2.1 mm, 2.7 µm, 0.2 mL/min, estimated dead time 1.1 min; A: water + 0.045% formic acid + 0.11% ammonium hydroxide, pH 7; B: methanol; gradient (min/%B) 0/5 5/5 25/95 25.1/100 35/100 35.1/5 45/5.
Data set [24] in a line: RP, Waters ACQUITY UPLC BEH C18, 100 × 2.1 mm, 1.7 µm, 0.1 mL/min, estimated dead time 2.2 min; A: water + 0.045% formic acid + 0.11% ammonium hydroxide, pH 7; B: methanol; gradient (min/%B) 0/5 5/5 25/95 25.1/100 35/100 35.1/5 45/5.
Data set [25] can be described thus: RP, Waters ACQUITY UPLC BEH C18, 100 × 2.1 mm, 1.7 µm, 0.2 mL/min, estimated dead time 1.1 min; A: water + 0.025% formic acid + 20 mM ammonium acetate + 0.055% ammonium hydroxide, pH 7; B: methanol; gradient (min/%B) 0/5 5/5 25/100 30/100 30.1/5 35/5. The source holds these as a separate data set.

For 5 compounds, LC retention time results are on record in the RepoRT retention time repository (doi:10.1016/j.jchromb.2020.122105).

Regarding `Nc1nc2c(ncn2C2OC(CO)C(O)C2O)c(=O)[nH]1` (stereo unspecified) [GUANOSINE], the LC retention time in data set [1] is 7.02 min; in [2], 5.43 min; in [3], 10.9 min; in data set [4] it was 4.79 min; in [5], 3.31 min; in data set [6], 2.95 min. For the same compound, the LC retention time was 2.74 min in [7]; 2.7 min in [8]; 1.76 min in data set [9]; 10.5 min in data set [10]; 10.1 min in data set [11]; 10.3 min in data set [12].

`CC(=O)NC(CCC(=O)O)C(=O)O` (racemic) [N-ACETYL-DL-GLUTAMIC ACID]: the LC retention time in data set [13] was 2.22 min; in [1], 3.1 min; in data set [2], 2.22 min; in data set [14], 24 min; in data set [4] it was 2.89 min; in data set [5], 2.27 min. Moreover, the LC retention time was 1.77 min in data set [6]; 4.43 min in [8]; 1.36 min in data set [9]; 14 min in [10]; 13.6 min in data set [11]; 13.6 min in data set [12].

As to `CC(=O)N[C@@H](CC(C)C)C(=O)O` [N-ACETYL-L-LEUCINE], the LC retention time in data set [13] is 12.2 min; in data set [1], 14.6 min; in [2], 12.8 min; in data set [3], 18.4 min; in data set [4], 14.3 min; in data set [5], 13.3 min. Also, the LC retention time in [6] is 12 min; in [8], 17.2 min; in data set [9], 6.59 min; in data set [10], 6.56 min; in data set [11], 5.95 min; in data set [12], 7.4 min.

As to `CC(=O)NCCc1c[nH]c2ccc(O)cc12` [N-ACETYLSEROTONIN], the LC retention time in [15] was 9.2 min; in data set [16] it was 10.4 min; in data set [17], 12.1 min; in data set [18] it was 10.6 min; in data set [19], 13.3 min; in data set [20] it was 10.8 min. Further, the LC retention time is 11.3 min in data set [21]; 15.3 min in data set [3]; 9.27 min in data set [22]; 11.8 min in data set [4]; 13.6 min in data set [7]; 10.7 min in [23]. The LC retention time in [8] is 13.7 min; in data set [24], 13.7 min; in data set [9], 10.2 min; in [25], 10.6 min; in data set [10], 1.15 min; in [11], 1.09 min. The LC retention time in [12] was 0.95 min.

Turning to `CC(=O)N[C@@H](Cc1ccccc1)C(=O)O` [N-ACETYL-L-PHENYLALANINE], the LC retention time was 11.8 min in data set [15]; 12.8 min in data set [16]; 12.8 min in data set [13]; 13.6 min in [18]; 15.3 min in data set [1]; 13.6 min in [2]. The LC retention time in [20] is 13.6 min; in [21] it was 14.4 min; in data set [3] it was 19 min; in data set [22], 12 min; in [4] it was 14.9 min; in [5], 13.8 min. Besides, the LC retention time is 12.7 min in data set [6]; 17.3 min in [7]; 9.59 min in data set [23]; 17.7 min in data set [8]; 13.6 min in data set [24]; 8.81 min in data set [9]. The LC retention time in data set [10] is 6.61 min; in [11], 5.57 min; in data set [12], 6.98 min.
